Reference: ChEMBL document CHEMBL1129151, “Stereoselective synthesis of lewis-associated trisaccharides as E-selectin inhibitors” (Bioorg Med Chem Lett, 1996)

Experiments:
Mus musculus = assay: In vivo ability to inhibit lipoteichoic acid (LTA)-induced neutrophil accumulation in murine pleurisy model at a dose of 30 mg/kg upon iv administration; format: functional; details: for inhibition in vivo at 30 mg/kg: Mus musculus, iv; for Inhibition: 30 mg/kg
E-selectin = target: T1, E-selectin (Homo sapiens, UniProt P16581); assay: In vitro ability to inhibit the adhesion of HL-60 cells to purified recombinant human Selectin E; format: cell-based
T1 sequence (P16581 whole entry): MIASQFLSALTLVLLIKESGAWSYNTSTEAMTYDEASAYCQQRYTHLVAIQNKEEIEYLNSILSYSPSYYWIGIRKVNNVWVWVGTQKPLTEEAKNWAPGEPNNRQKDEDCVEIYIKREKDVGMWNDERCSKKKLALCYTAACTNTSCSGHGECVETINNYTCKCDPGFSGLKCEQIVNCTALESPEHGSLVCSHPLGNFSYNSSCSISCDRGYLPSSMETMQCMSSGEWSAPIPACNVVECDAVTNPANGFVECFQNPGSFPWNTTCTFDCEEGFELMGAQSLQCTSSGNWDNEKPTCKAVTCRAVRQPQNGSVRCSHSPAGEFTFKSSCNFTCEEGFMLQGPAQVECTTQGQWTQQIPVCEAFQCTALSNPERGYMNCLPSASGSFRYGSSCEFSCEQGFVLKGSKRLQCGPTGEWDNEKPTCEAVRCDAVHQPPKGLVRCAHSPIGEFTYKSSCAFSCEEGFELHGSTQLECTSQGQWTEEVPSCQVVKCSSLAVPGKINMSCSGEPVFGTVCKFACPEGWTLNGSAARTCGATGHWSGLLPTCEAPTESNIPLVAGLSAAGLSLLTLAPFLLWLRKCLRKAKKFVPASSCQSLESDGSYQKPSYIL

Work on `CCO[C@@H]1O[C@@H](CO)[C@@H](O[C@@H]2O[C@@H](CO)[C@H](O)C(O)[C@@H]2O)C(O[C@@H]2O[C@@H](C)[C@@H](O)[C@H](O)[C@@H]2O)[C@@H]1NC(=O)c1ccc2ccccc2c1` (single isomer, unassigned) yielded an inhibition in vivo at 30 mg/kg (Mus musculus) of 3% and an IC50 (E-selectin) greater than 6.6 mM.
`CCO[C@@H]1O[C@@H](CO)[C@@H](O[C@@H]2O[C@@H](CO)[C@H](O)C(O)[C@@H]2O)C(O[C@@H]2O[C@@H](C)[C@@H](O)[C@H](O)[C@@H]2O)[C@@H]1NC(C)=O` (single isomer, unassigned) gave an inhibition in vivo at 30 mg/kg (Mus musculus) of 31% and an IC50 (E-selectin) greater than 6.6 mM.
With `CCO[C@@H]1O[C@@H](CO)[C@@H](O[C@@H]2O[C@H](C)[C@H](O)[C@H](O)[C@@H]2O)[C@H](O[C@@H]2O[C@@H](CO)[C@H](O)[C@H](O)[C@@H]2O)[C@@H]1NC(C)=O` (stereo in doubt; 1) the Inhibition (Mus musculus) was 37% and the IC50 (E-selectin) was greater than 6.6 mM.
`CCO[C@@H]1O[C@@H](CO)[C@@H](O[C@@H]2O[C@@H](C)[C@H](O)[C@H](O)[C@@H]2O)[C@H](O[C@@H]2O[C@@H](CO)[C@H](O)[C@H](O)[C@@H]2O)[C@@H]1NC(=O)c1ccc2ccccc2c1` (stereo in doubt; 2) showed an inhibition in vivo at 30 mg/kg (Mus musculus) of 49% and an IC50 (E-selectin) greater than 6.6 mM.
Compound `CCO[C@@H]1O[C@@H](CO)[C@@H](O[C@@H]2O[C@H](C)[C@H](O)[C@H](O)[C@@H]2O)[C@H](O[C@@H]2O[C@@H](CO)[C@H](O)[C@H](O)[C@@H]2O)[C@@H]1NC(C)=O` (stereo in doubt; 3) has an inhibition in vivo at 30 mg/kg (Mus musculus) of 51% and an IC50 (E-selectin) of 1.4 mM.
`CCO[C@@H]1O[C@@H](CO)[C@@H](O[C@@H]2O[C@@H](C)[C@H](O)[C@H](O)[C@@H]2O)[C@H](O[C@@H]2O[C@@H](CO)[C@H](O)[C@H](O)[C@@H]2O)[C@@H]1NC(=O)c1ccc2ccccc2c1` (stereo in doubt; 4) gave an Inhibition (Mus musculus) of 62% and an IC50 (E-selectin) of 2 mM.
